# Active and inactive are the calls of the source. The calls are words filed in the database; no cut-off is given here.
# Experiments:
# [1] = system: Pseudomonas aeruginosa; assay: Synergistic antibacterial activity against Pseudomonas aeruginosa PA101243 assessed as fold change in doxycycline MIC by CLSI based broth-microdilution method relative to doxycycline alone; type: functional
# [2] = system: Pseudomonas aeruginosa; assay: Synergistic antibacterial activity against Pseudomonas aeruginosa PA259 in presence of minocycline by checkerboard assay; type: functional
# [3] = system: Pseudomonas aeruginosa; assay: Antibacterial activity against Pseudomonas aeruginosa PA114228 assessed as inhibition of visible bacterial growth by CLSI based broth-microdilution method; type: functional
# [4] = system: Pseudomonas aeruginosa; assay: Synergistic antibacterial activity against Pseudomonas aeruginosa PA264 assessed as fractional inhibitory concentration index in presence of eravacycline by checkerboard assay; type: functional
# [5] = system: Pseudomonas aeruginosa; assay: Antibacterial activity against Pseudomonas aeruginosa PA259 assessed as increase in bacterial load in presence of eravacycline by time kill assay; type: functional, organism-based
# [6] = system: Pseudomonas aeruginosa; assay: Synergistic antibacterial activity against Pseudomonas aeruginosa PA114228 assessed as fold change in tigecycline MIC by CLSI based broth-microdilution method relative to tigecycline alone; type: functional
# [7] = system: Pseudomonas aeruginosa; assay: Synergistic antibacterial activity against Pseudomonas aeruginosa PA114228 assessed as fractional inhibitory concentration index in presence of tigecycline by checkerboard assay; type: functional
# [8] = system: Pseudomonas aeruginosa; assay: Antibacterial activity against Pseudomonas aeruginosa PA264 assessed as eravacycline MIC by CLSI based broth-microdilution method; type: functional
# [9] = system: Pseudomonas aeruginosa; assay: Antibacterial activity against Pseudomonas aeruginosa PA100036 assessed as doxycycline MIC by CLSI based broth-microdilution method; type: functional
# [10] = system: Pseudomonas aeruginosa; assay: Antibacterial activity against Pseudomonas aeruginosa PA259 assessed as reduction in bacterial load by time kill assay; type: functional, organism-based
# [11] = system: Pseudomonas aeruginosa; assay: Synergistic antibacterial activity against Pseudomonas aeruginosa PA114228 assessed as fractional inhibitory concentration index in presence of eravacycline by checkerboard assay; type: functional
# [12] = system: Pseudomonas aeruginosa; assay: Synergistic antibacterial activity against Pseudomonas aeruginosa PA095 assessed as fractional inhibitory concentration index in presence of doxycycline by checkerboard assay; type: functional
# [13] = system: Pseudomonas aeruginosa; assay: Antibacterial activity against Pseudomonas aeruginosa PA114228 assessed as eravacycline MIC by CLSI based broth-microdilution method; type: functional
# [14] = system: Pseudomonas aeruginosa; assay: Antibacterial activity against Pseudomonas aeruginosa PA200 assessed as inhibition of visible bacterial growth by CLSI based broth-microdilution method; type: functional
# [15] = system: Pseudomonas aeruginosa; assay: Synergistic antibacterial activity against Pseudomonas aeruginosa PA101243 in presence of tigecycline by checkerboard assay; type: functional
# [16] = system: Pseudomonas aeruginosa; assay: Antibacterial activity against Pseudomonas aeruginosa PA200 assessed as eravacycline MIC by CLSI based broth-microdilution method; type: functional
# [17] = system: Pseudomonas aeruginosa; assay: Synergistic antibacterial activity against Pseudomonas aeruginosa PA100036 in presence of eravacycline by checkerboard assay; type: functional
# [18] = system: Pseudomonas aeruginosa; assay: Synergistic antibacterial activity against Pseudomonas aeruginosa PA200 in presence of tigecycline by checkerboard assay; type: functional
# [19] = system: Pseudomonas aeruginosa; assay: Synergistic antibacterial activity against Pseudomonas aeruginosa PA262 in presence of eravacycline by checkerboard assay; type: functional
# [20] = system: Pseudomonas aeruginosa; assay: Synergistic antibacterial activity against Pseudomonas aeruginosa PA264 assessed as fold change in tigecycline MIC by CLSI based broth-microdilution method relative to tigecycline alone; type: functional
# [21] = system: Pseudomonas aeruginosa; assay: Antibacterial activity against Pseudomonas aeruginosa PA101243 assessed as inhibition of visible bacterial growth by CLSI based broth-microdilution method; type: functional
# [22] = system: Pseudomonas aeruginosa; assay: Synergistic antibacterial activity against Pseudomonas aeruginosa PA200 assessed as fractional inhibitory concentration index in presence of minocycline by checkerboard assay; type: functional
# [23] = system: Escherichia coli; assay: Antibacterial activity against Escherichia coli ATCC 25922 assessed as inhibition of visible bacterial growth by CLSI based broth-microdilution method; type: functional
# [24] = system: Pseudomonas aeruginosa; assay: Synergistic antibacterial activity against Pseudomonas aeruginosa PA101243 assessed as fold change in eravacycline MIC by CLSI based broth-microdilution method relative to eravacycline alone; type: functional
# [25] = system: Pseudomonas aeruginosa; assay: Antibacterial activity against Pseudomonas aeruginosa PA200 assessed as minocycline MIC by CLSI based broth-microdilution method; type: functional
# [26] = system: Pseudomonas aeruginosa; assay: Synergistic antibacterial activity against Pseudomonas aeruginosa PA200 assessed as fractional inhibitory concentration index in presence of tigecycline by checkerboard assay; type: functional
# [27] = system: Pseudomonas aeruginosa; assay: Synergistic antibacterial activity against Pseudomonas aeruginosa PA200 assessed as fractional inhibitory concentration index in presence of doxycycline by checkerboard assay; type: functional
# [28] = system: Acinetobacter baumannii; assay: Antibacterial activity against Acinetobacter baumannii ATCC 17978 assessed as inhibition of visible bacterial growth by CLSI based broth-microdilution method; type: functional
# [29] = system: Pseudomonas aeruginosa; assay: Antibacterial activity against Pseudomonas aeruginosa PA262 assessed as doxycycline MIC by CLSI based broth-microdilution method; type: functional
# [30] = system: Pseudomonas aeruginosa; assay: Synergistic antibacterial activity against Pseudomonas aeruginosa PAO1 assessed as fold change in eravacycline MIC by checkerboard analysis relative to eravacycline alone; type: functional
# [31] = system: Pseudomonas aeruginosa; assay: Synergistic antibacterial activity against Pseudomonas aeruginosa PA259 assessed as fractional inhibitory concentration index in presence of doxycycline by checkerboard assay; type: functional
# [32] = system: Pseudomonas aeruginosa; assay: Synergistic antibacterial activity against Pseudomonas aeruginosa PA259 in presence of doxycycline by checkerboard assay; type: functional
# [33] = system: Pseudomonas aeruginosa; assay: Synergistic antibacterial activity against Pseudomonas aeruginosa PA114228 in presence of doxycycline by checkerboard assay; type: functional
# [34] = system: Pseudomonas aeruginosa; assay: Synergistic antibacterial activity against Pseudomonas aeruginosa PA200 assessed as fold change in tigecycline MIC by CLSI based broth-microdilution method relative to tigecycline alone; type: functional
# [35] = system: Pseudomonas aeruginosa; assay: Antibacterial activity against Pseudomonas aeruginosa PAO1 assessed as inhibition of bacterial growth by measuring fold change in MIC in presence of 50 % fetal bovine serum by CLSI protocol based assay; type: functional
# [36] = system: Pseudomonas aeruginosa; assay: Synergistic antibacterial activity against Pseudomonas aeruginosa PA264 in presence of eravacycline by checkerboard assay; type: functional
# [37] = system: Pseudomonas aeruginosa; assay: Antibacterial activity against Pseudomonas aeruginosa PA262 assessed as tigecycline MIC by CLSI based broth-microdilution method; type: functional
# [38] = system: Pseudomonas aeruginosa; assay: Synergistic antibacterial activity against Pseudomonas aeruginosa PA100036 in presence of minocycline by checkerboard assay; type: functional
# [39] = system: Pseudomonas aeruginosa; assay: Antibacterial activity against Pseudomonas aeruginosa PA264 assessed as inhibition of visible bacterial growth by CLSI based broth-microdilution method; type: functional
# [40] = system: Pseudomonas aeruginosa; assay: Synergistic antibacterial activity against Pseudomonas aeruginosa PA259 assessed as fractional inhibitory concentration index in presence of minocycline by checkerboard assay; type: functional
# [41] = system: Pseudomonas aeruginosa; assay: Synergistic antibacterial activity against Pseudomonas aeruginosa PA100036 assessed as fractional inhibitory concentration index in presence of minocycline by checkerboard assay; type: functional
# [42] = system: Pseudomonas aeruginosa; assay: Synergistic antibacterial activity against Pseudomonas aeruginosa PA200 in presence of minocycline by checkerboard assay; type: functional
# [43] = system: Pseudomonas aeruginosa; assay: Synergistic antibacterial activity against Pseudomonas aeruginosa PA095 assessed as fold change in tigecycline MIC by CLSI based broth-microdilution method relative to tigecycline alone; type: functional
# [44] = system: Pseudomonas aeruginosa; assay: Antibacterial activity against Pseudomonas aeruginosa PA264 assessed as doxycycline MIC by CLSI based broth-microdilution method; type: functional
# [45] = system: Pseudomonas aeruginosa; assay: Synergistic antibacterial activity against Pseudomonas aeruginosa PA259 in presence of tigecycline by checkerboard assay; type: functional
# [46] = system: Pseudomonas aeruginosa; assay: Synergistic antibacterial activity against Pseudomonas aeruginosa PA101243 assessed as fractional inhibitory concentration index in presence of tigecycline by checkerboard assay; type: functional
# [47] = system: Pseudomonas aeruginosa; assay: Synergistic antibacterial activity against Pseudomonas aeruginosa PA101243 in presence of eravacycline by checkerboard assay; type: functional
smiles,measurement,setting,value
Cl.Cl.Cl.Cl.Cl.Cl.NC[C@H]1O[C@H](O[C@H]2[C@H](OCCCCCCCCCCCCNC(=O)c3cn(C4CC4)c4cc(N5CCNCC5)c(F)cc4c3=O)[C@@H](O[C@H]3O[C@H](CO)[C@@H](O)[C@H](N)[C@H]3O)[C@H](N)C[C@@H]2N)[C@H](N)C[C@@H]1O,fold change (FC),[1],2
same,MIC,[2],8 µg/mL
same,MIC,[3],> 128 µg/mL
same,fractional inhibitory concentration index (FICI),[4],0.008
same,Activity,[5],Active
same,fold change (FC),[6],128
same,fractional inhibitory concentration index (FICI),[7],0.25
same,MIC,[8],0.125 µg/mL
same,MIC,[9],1 µg/mL
same,AC30,[10],Active
same,fractional inhibitory concentration index (FICI),[11],0.5
same,fractional inhibitory concentration index (FICI),[12],0.25
same,MIC,[13],4 µg/mL
same,MIC,[14],32 µg/mL
same,MIC,[15],8 µg/mL
same,MIC,[16],0.031 µg/mL
same,MIC,[17],8 µg/mL
same,MIC,[18],8 µg/mL
same,MIC,[19],8 µg/mL
same,fold change (FC),[20],32
same,MIC,[21],> 128 µg/mL
same,fractional inhibitory concentration index (FICI),[22],0.312
same,MIC,[23],> 128 µg/mL
same,fold change (FC),[24],4
same,MIC,[25],1 µg/mL
same,fractional inhibitory concentration index (FICI),[26],0.187
same,fractional inhibitory concentration index (FICI),[27],0.257
same,MIC,[28],> 128 µg/mL
same,MIC,[29],8 µg/mL
same,fold change (FC),[30],64
same,fractional inhibitory concentration index (FICI),[31],0.008
same,MIC,[32],8 µg/mL
same,MIC,[33],8 µg/mL
same,fold change (FC),[34],16
same,fold change (FC),[35],1
same,MIC,[36],8 µg/mL
same,MIC,[37],2 µg/mL
same,MIC,[38],8 µg/mL
same,MIC,[39],> 128 µg/mL
same,fractional inhibitory concentration index (FICI),[40],0.002
same,fractional inhibitory concentration index (FICI),[41],0.015
same,MIC,[42],8 µg/mL
same,fold change (FC),[43],2
same,MIC,[44],0.5 µg/mL
same,MIC,[45],8 µg/mL
same,fractional inhibitory concentration index (FICI),[46],0.125
same,MIC,[47],8 µg/mL

# From ChEMBL document CHEMBL6078622, “Enhancing outer membrane permeability of tetracycline antibiotics in P. aeruginosa using TOB-CIP conjugates” (RSC Med Chem, 2024)
